Patent US20060069132A1, “Azolecarboxamide herbicides” (priority 2004, published 2006)

What was measured:
[1] = test system: wheat cv. Retical; assay: Test H safening on wheat by naphthalic anhydride seed treatment, pre-/postemergence; format: in vivo, Triticum aestivum; parameters: key to Response of wheat, Without naphthalic anhydride seed treatment: 0 = no effect, 100 = complete plant death, vs untreated control
Method: This test evaluated the safening of compounds of the invention on wheat (Triticum aestivumL.) cv. ‘Retical’ by seed treatment with naphthalic anhydride. Some of the wheat seed was treated with napthalic anhydride as a 1% by weight seed dressing. The wheat seed were planted in pots containing pasteurized Sassafras sandy loam soil. For postemergence testing the plants were grown 8 days to the 2-leaf stage at time of treatment. Preemergence treatments were applied the same day that the seeds were planted. Treatments were applied by spraying the test compounds formulated in a non-phytotoxic solvent mixture, using a flat fan nozzle and a spray volume of 280 L/ha. The preemergence treatments were triply replicated and the results subsequently averaged. The pots were placed on a growth chamber bench using a complete randomized block design for the preemergence test except for the first replicate, which was unrandomized. The plants were grown in the growth chamber and watered as needed with a dilute nutrient solution containing 200 ppm of N. Illumination was provided by fluorescent lamps giving 200-300 μE/m^2/S of photosynthetically active radiation over a 14-hour photoperiod. The temperature was maintained at 23±2° C. during the day and 17±2° C. at night. The effects of the treatments were rated 25 days after preemergence treatment and 14 days after postemergence treatment. The plant response was visually rated in comparison to untreated controls using a scale of 0 to 100, with 0 representing no effect and 100 representing complete plant death. The results for the compounds tested preemergence are listed in Table H1, and the results for the compounds tested postemergence are listed in Table H2.

[2] = test system: downy bromegrass; assay: Test F pre-/postemergence herbicide test; format: in vivo, Bromus tectorum
Text: (§1) Seeds of plant species selected from annual blugrass (Poa annua L.), blackgrass (Alopecurus myosuroides Huds.), catchweed bedstraw (Gallium aparine L.), common chickweed (Stellaria media (L.) Vill./Cyr.), downy bromegrass (Bromus tectorum L.), green foxtail (Setaria viridis (L.) Beauv.), Italian ryegrass (Lolium multiflorum Lam.), kochia (Kochia scoparia (L.). Schrad.), lambsquarters (Chenopodium album L.), littleseed canarygrass (Phalaris minor Retz.), pigweed (Amaranthus retroflexus L.), Russian thistle (Salsola kali L. ssp. Ruthenica (Iljin) Soo), wild buckwheat (Polygonum convolvulus L.), wild mustard (Sinapis arvensis L.), wild oat (Avena fatua L.), windgrass (Apera spica-venti (L.) Beauv.), winter barley (Hordeum vulgare L.), and wheat (Triticum aestivum L.) were planted and treated preemergence with test chemicals formulated in a non-phytotoxic solvent mixture which included a surfactant.
(§2) At the same time, plants selected from these crop and weed species were treated with postemergence applications of some of the test chemicals formulated in the same manner. Plants ranged in height from 2 to 18 cm (1- to 4-leaf stage) for postemergence treatments. Treated plants and controls were maintained in a greenhouse for 12 to 14 days, after which time all species were compared to controls and visually evaluated. Plant response ratings, summarized in Table F, are based on a scale of 0 to 100 where 0 is no effect and 100 is complete control. A dash (-) response means no test result.

[3] = test system: Italian ryegrass; assay: Test F pre-/postemergence herbicide test; format: in vivo, Lolium multiflorum
Text: as §1, §2

[4] = test system: lambsquarters; assay: Test F pre-/postemergence herbicide test; format: in vivo, Chenopodium album
Text: as §1, §2

[5] = test system: pigweed; assay: Test F pre-/postemergence herbicide test; format: in vivo, Amaranthus retroflexus
Text: as §1, §2

[6] = test system: wild mustard; assay: Test F pre-/postemergence herbicide test; format: in vivo, Sinapis arvensis
Text: as §1, §2

[7] = test system: wild oat; assay: Test F pre-/postemergence herbicide test; format: in vivo, Avena fatua
Text: as §1, §2

[8] = test system: winter barley; assay: Test F pre-/postemergence herbicide test; format: in vivo, Hordeum vulgare
Text: as §1, §2

CCNC(=O)c1ccc(F)c(NC(=O)c2cc(C(C)(C)C)nn2CC)c1 [Compound 2, 3-(1,1-dimethylethyl)-1-ethyl-N-[5-[(ethylamino)carbonyl]-2-fluorophenyl]-1H-pyrazole-5-carboxamide]
Response of wheat, With 1% naphthalic anhydride seed treatment ([1]; postemergence, 62 g a.i./ha): 30 | Response of wheat, Without naphthalic anhydride seed treatment ([1]; postemergence, 62 g a.i./ha): 60 | Response of wheat, With 1% naphthalic anhydride seed treatment ([1]; postemergence, 125 g a.i./ha): 65 | Response of wheat, Without naphthalic anhydride seed treatment ([1]; postemergence, 125 g a.i./ha): 75 | Response of wheat, With 1% naphthalic anhydride seed treatment ([1]; preemergence, 62 g a.i./ha): 50 | Response of wheat, Without naphthalic anhydride seed treatment ([1]; preemergence, 62 g a.i./ha): 62 | Response of wheat, With 1% naphthalic anhydride seed treatment ([1]; preemergence, 125 g a.i./ha): 72 | Response of wheat, Without naphthalic anhydride seed treatment ([1]; preemergence, 125 g a.i./ha): 82

CCn1nc(C(C)(C)C)cc1C(=O)Nc1cccc(C(N)=O)n1 [Compound 162, 6-[[[3-(1,1-dimethylethyl)-1-ethyl-1H-pyrazol-5-yl]carbonyl]amino]-2-pyridinecarboxamide]
Plant response rating (0-100), Bromegrass, Downy ([2]; Postemergence, 62 g ai/ha): 50 | Plant response rating (0-100), Bromegrass, Downy ([2]; Postemergence, 125 g ai/ha): 50 | Plant response rating (0-100), Bromegrass, Downy ([2]; Postemergence, 250 g ai/ha): 80 | Plant response rating (0-100), Bromegrass, Downy ([2]; Postemergence, 500 g ai/ha): 90 | Plant response rating (0-100), Bromegrass, Downy ([2]; Preemergence, 62 g ai/ha): 70 | Plant response rating (0-100), Bromegrass, Downy ([2]; Preemergence, 125 g ai/ha): 100 | Plant response rating (0-100), Bromegrass, Downy ([2]; Preemergence, 250 g ai/ha): 100 | Plant response rating (0-100), Bromegrass, Downy ([2]; Preemergence, 500 g ai/ha): 100 | Plant response rating (0-100), Ryegrass, Italian ([3]; Postemergence, 62 g ai/ha): 70 | Plant response rating (0-100), Ryegrass, Italian ([3]; Postemergence, 125 g ai/ha): 80 | Plant response rating (0-100), Ryegrass, Italian ([3]; Postemergence, 250 g ai/ha): 90 | Plant response rating (0-100), Ryegrass, Italian ([3]; Postemergence, 500 g ai/ha): 100 | Plant response rating (0-100), Ryegrass, Italian ([3]; Preemergence, 62 g ai/ha): 100 | Plant response rating (0-100), Ryegrass, Italian ([3]; Preemergence, 125 g ai/ha): 100 | Plant response rating (0-100), Ryegrass, Italian ([3]; Preemergence, 250 g ai/ha): 100 | Plant response rating (0-100), Ryegrass, Italian ([3]; Preemergence, 500 g ai/ha): 100 | Plant response rating (0-100), Lambsquarters ([4]; Postemergence, 62 g ai/ha): 100 | Plant response rating (0-100), Lambsquarters ([4]; Postemergence, 125 g ai/ha): 100 | Plant response rating (0-100), Lambsquarters ([4]; Postemergence, 250 g ai/ha): 100 | Plant response rating (0-100), Lambsquarters ([4]; Postemergence, 500 g ai/ha): 100 | Plant response rating (0-100), Lambsquarters ([4]; Preemergence, 62 g ai/ha): 100 | Plant response rating (0-100), Lambsquarters ([4]; Preemergence, 125 g ai/ha): 100 | Plant response rating (0-100), Lambsquarters ([4]; Preemergence, 250 g ai/ha): 100 | Plant response rating (0-100), Lambsquarters ([4]; Preemergence, 500 g ai/ha): 100 | Plant response rating (0-100), Pigweed ([5]; Postemergence, 62 g ai/ha): 70 | Plant response rating (0-100), Pigweed ([5]; Postemergence, 125 g ai/ha): 90 | Plant response rating (0-100), Pigweed ([5]; Postemergence, 250 g ai/ha): 100 | Plant response rating (0-100), Pigweed ([5]; Postemergence, 500 g ai/ha): 100 | Plant response rating (0-100), Pigweed ([5]; Preemergence, 62 g ai/ha): 90 | Plant response rating (0-100), Pigweed ([5]; Preemergence, 125 g ai/ha): 100 | Plant response rating (0-100), Pigweed ([5]; Preemergence, 250 g ai/ha): 100 | Plant response rating (0-100), Pigweed ([5]; Preemergence, 500 g ai/ha): 100 | Plant response rating (0-100), Mustard, Wild ([6]; Postemergence, 62 g ai/ha): 60 | Plant response rating (0-100), Mustard, Wild ([6]; Postemergence, 125 g ai/ha): 80 | Plant response rating (0-100), Mustard, Wild ([6]; Postemergence, 250 g ai/ha): 100 | Plant response rating (0-100), Mustard, Wild ([6]; Postemergence, 500 g ai/ha): 100 | Plant response rating (0-100), Mustard, Wild ([6]; Preemergence, 62 g ai/ha): 80 | Plant response rating (0-100), Mustard, Wild ([6]; Preemergence, 125 g ai/ha): 80 | Plant response rating (0-100), Mustard, Wild ([6]; Preemergence, 250 g ai/ha): 100 | Plant response rating (0-100), Mustard, Wild ([6]; Preemergence, 500 g ai/ha): 100 | Plant response rating (0-100), Oat, Wild ([7]; Postemergence, 62 g ai/ha): 70 | Plant response rating (0-100), Oat, Wild ([7]; Postemergence, 125 g ai/ha): 80 | Plant response rating (0-100), Oat, Wild ([7]; Postemergence, 250 g ai/ha): 100 | Plant response rating (0-100), Oat, Wild ([7]; Postemergence, 500 g ai/ha): 100 | Plant response rating (0-100), Oat, Wild ([7]; Preemergence, 62 g ai/ha): 100 | Plant response rating (0-100), Oat, Wild ([7]; Preemergence, 125 g ai/ha): 100 | Plant response rating (0-100), Oat, Wild ([7]; Preemergence, 250 g ai/ha): 100 | Plant response rating (0-100), Oat, Wild ([7]; Preemergence, 500 g ai/ha): 100 | Plant response rating (0-100), Barley, Winter ([8]; Postemergence, 62 g ai/ha): 40 | Plant response rating (0-100), Barley, Winter ([8]; Postemergence, 125 g ai/ha): 50 | Plant response rating (0-100), Barley, Winter ([8]; Postemergence, 250 g ai/ha): 80 | Plant response rating (0-100), Barley, Winter ([8]; Postemergence, 500 g ai/ha): 80 | Plant response rating (0-100), Barley, Winter ([8]; Preemergence, 62 g ai/ha): 70 | Plant response rating (0-100), Barley, Winter ([8]; Preemergence, 125 g ai/ha): 100 | Plant response rating (0-100), Barley, Winter ([8]; Preemergence, 250 g ai/ha): 100 | Plant response rating (0-100), Barley, Winter ([8]; Preemergence, 500 g ai/ha): 100 | Response of wheat, With 1% naphthalic anhydride seed treatment ([1]; postemergence, 62 g a.i./ha): 5 | Response of wheat, Without naphthalic anhydride seed treatment ([1]; postemergence, 62 g a.i./ha): 5 | Response of wheat, With 1% naphthalic anhydride seed treatment ([1]; postemergence, 125 g a.i./ha): 30 | Response of wheat, Without naphthalic anhydride seed treatment ([1]; postemergence, 125 g a.i./ha): 70 | Response of wheat, With 1% naphthalic anhydride seed treatment ([1]; preemergence, 62 g a.i./ha): 47 | Response of wheat, Without naphthalic anhydride seed treatment ([1]; preemergence, 62 g a.i./ha): 60 | Response of wheat, With 1% naphthalic anhydride seed treatment ([1]; preemergence, 125 g a.i./ha): 62 | Response of wheat, Without naphthalic anhydride seed treatment ([1]; preemergence, 125 g a.i./ha): 98 | Response of wheat, With 1% naphthalic anhydride seed treatment ([1]; preemergence, 250 g a.i./ha): 96 | Response of wheat, Without naphthalic anhydride seed treatment ([1]; preemergence, 250 g a.i./ha): 98

CCc1nn(C(C)(C)C)cc1C(=O)Nc1cc(C(=O)N(CC)CC)ccc1F [Compound 223]
Plant response rating (0-100), Bromegrass, Downy ([2]; Postemergence, 125 g ai/ha): 20 | Plant response rating (0-100), Bromegrass, Downy ([2]; Preemergence, 125 g ai/ha): 50 | Plant response rating (0-100), Ryegrass, Italian ([3]; Postemergence, 125 g ai/ha): 45 | Plant response rating (0-100), Ryegrass, Italian ([3]; Preemergence, 125 g ai/ha): 65 | Plant response rating (0-100), Lambsquarters ([4]; Postemergence, 125 g ai/ha): 65 | Plant response rating (0-100), Lambsquarters ([4]; Preemergence, 125 g ai/ha): 95 | Plant response rating (0-100), Pigweed ([5]; Postemergence, 125 g ai/ha): 65 | Plant response rating (0-100), Pigweed ([5]; Preemergence, 125 g ai/ha): 100 | Plant response rating (0-100), Mustard, Wild ([6]; Postemergence, 125 g ai/ha): 65 | Plant response rating (0-100), Mustard, Wild ([6]; Preemergence, 125 g ai/ha): 100 | Plant response rating (0-100), Oat, Wild ([7]; Postemergence, 125 g ai/ha): 35 | Plant response rating (0-100), Oat, Wild ([7]; Preemergence, 125 g ai/ha): 70 | Plant response rating (0-100), Barley, Winter ([8]; Postemergence, 125 g ai/ha): 0 | Plant response rating (0-100), Barley, Winter ([8]; Preemergence, 125 g ai/ha): 25
